Source: patent US6897211B2, “Thienodibenzoazulene compounds as tumor necrosis factor inhibitors” (Pliva-Istrazivacki Institut d.o.o., priority 2000, dated 2005)

Assays:
[1] = test system: secretion of TNF-α and IL-1; assay: investigated tests: TNF-α and IL-1 secretion in human PBMC and mouse peritoneal macrophages in vitro, LPS-induced TNF-α/IL-1 secretion in mice, writhing test, LPS-induced shock in mice; details: tests not specified per compound; active = IC-50 20 μM or lower (human PBMC), 10 μM or lower (mouse macrophages), 30% or higher TNF-α inhibition at 10 mg/kg p.o., analgetic activity same or better than acetyl salicylic acid, 40% or better survival at 30 mg/kg

| Compound | melting point | activity in at least two investigated tests [1] |
| --- | --- | --- |
| CN(C)CCOCc1cc2c(s1)-c1ccccc1Oc1ccccc1-2.Cl | 131 to 133 °C | – |
| Cl.c1ccc2c(c1)Oc1ccccc1-c1sc(COCCN3CCOCC3)cc1-2 | 157 to 158 °C | – |
| Cl.c1ccc2c(c1)Oc1ccccc1-c1sc(COCCN3CCCCC3)cc1-2 | 117 to 123 °C | – |
| CN(C)CCCOCc1cc2c(s1)-c1ccccc1Oc1ccccc1-2.Cl [Example 1, Dimethyl-[3-(8-oxa-1-thia-dibenzo[e,h]azulene-2-ylmethoxy)-propyl]-amine hydrochloride] | 120 to 122 °C | activity in at least two investigated tests |
| Cl.c1ccc2c(c1)Oc1ccccc1-c1sc(COCCN3CCCC3)cc1-2 [Example 5, 1-[2-(8-oxa-1-thia-dibenzo[e,h]azulene-2-ylmethoxy)-ethyl]-pyrrolidine hydrochloride] | – | activity in at least two investigated tests |
| CN(C)CCCOCc1cc2c(s1)-c1cccc(Cl)c1Oc1ccccc1-2 [Example 6, [3-(9-chloro-8-oxa-1-thia-dibenzo[e,h]azulene-2-ylmethoxy)-propyl]-dimethyl-amine] | 124 to 128 °C | – |
| CN(C)CCOCc1cc2c(s1)-c1cccc(Cl)c1Oc1ccccc1-2 [Example 7, [2-(9-chloro-8-oxa-1-thia-dibenzo[e,h]azulene-2-ylmethoxy)-ethyl]-dimethyl-amine] | 122 °C | – |
| Cl.Fc1ccc2c(c1)-c1sc(COCCN3CCCCC3)cc1-c1ccccc1O2 [Example 19, 1-[2-(11-fluoro-8-oxa-1-thia-dibenzo[e,h]azulene-2-ylmethoxy)-ethyl]-piperidine hydrochloride] | – | activity in at least two investigated tests |
| CN(C)CCCOCc1cc2c(s1)-c1ccccc1Sc1ccccc1-2.Cl [Example 21, [3-(1,8-dithia-dibenzo[e,h]azulene-2-ylmethoxy)-propyl]-dimethylamine hydrochloride] | – | activity in at least two investigated tests |
